In patent publication US11185522B2, “Cilastatin for use in the treatment of sepsis” (FUNDACIÓN PARA LA INVESTIGACIÓN BIOMÉDICA DEL HOSPITAL …, priority 2016, dated 2021):
Several values for one entry are separate records, joined by “and”; a condition that tells them apart may be missing. Equal entries are not always repeated.

Key:
[1] = test system: cleaved caspase-3; details: septic rats; immunohistochemistry and Western blot of the renal cortex
Procedure: (§1) Sepsis was developed by cecal ligation puncture model (CLP) as described in several papers (Li G et al, Clin Exp Pharmacol Physiol. 2014; 41(7):459-68, Seija M et al, Shock. 2012; 38(4):403-10). Animals were anesthetized with ketamine (Ketolar 50 mg/ml) 90 mg/kg intraperitoneal (ip) and diazepam (Valium 10 mg/2 mL) 5 mg/kg ip. Under sterile conditions a 3-cm midline laparotomy was performed to allow exposure of the cecum, and a 4-0 silk ligature was placed 0.75 cm from the cecal tip. It was punctured once with a 14-gauge needle. A second ligature was placed 1.5 cm proximal to the first one and distal to the ileocecal valve to avoid intestinal obstruction. Three punctures were made in the cecum between the two ligatures with a 16-gauge needle. The cecum was gently squeezed until a 1-mm column of fecal material was exteriorized. The bowel was then returned to the abdomen and the incision was closed in layers. A sham operation (laparotomy and cecal exposure without any other manipulation) was performed as control. At the end of the operation, all rats were resuscitated with normal saline (50 ml/kg body weight) subcutaneously in a single dose and analgesic treatment with buprenorphine (buprex 0.3 mg/ml) 0.1 mg/kg every 12 hours immediately after surgery and until the day of killing.
(§2) Immunohistochemistry was carried out as described previously (Humanes B et al, Kidney International. 2012; 82(6):652-663). […] The surface area labeled by antibodies was evaluated by quantitative image analysis as previously described (Lazaro A. et al. Antiox Redox Signal. 2005; 7:1285-1293). In brief, the percentage of the stained area was calculated as the ratio of suitable binary thresholded image and the total field area. […]
(§3) Western blotting was performed as described previously (Humanes B et al, Kidney International. 2012; 82(6):652-663). […] All signals were visualized with an Alliance 4.7 (Uvitec, Cambridge, UK) and analyzed by densitometric scanning (ImageJ; http://rsbweb.nih.gov/ij/index.html). […]

[2] = test system: Cu/Zn SOD; details: septic rats; immunohistochemistry and Western blotting
Procedure: as §1, §2, §3

[3] = test system: KIM-1; details: sepsis+cil vs control (SHAM) levels; immunohistochemistry and Western blot; 48 h
Procedure: as §1, §2, §3

[4] = test system: CD68; details: cilastatin-treated septic rats compared to the sepsis group
Procedure: as §1
(§4) Immunohistochemistry was carried out as described previously (Humanes B et al, Kidney International. 2012; 82(6):652-663). The primary antibodies used were polyclonal goat anti-rat TIM-1/KIM-1/HAVCR (1:20; R&D systems); anti-cleaved caspase-3 (Asp175) (1:50; Cell Signaling Technology, Inc., Beverly, Mass.) mouse monoclonal anti-4-HNE (1:75; Oxis International Inc., Foster City, Calif.); polyclonal rabbit anti-Cu/Zn SOD (1:1000; Assay Designs, Stressgen, Ann Arbor, Mich., USA); monoclonal mouse anti-CD68 (monocyte/macrophage, 1:125, Abd Serotec, Oxford, UK); polyclonal goat anti-VCAM-1 (1:100; Santa Cruz Biotechology, Inc., Beverly, Mass., USA); polyclonal rabbit anti-TGFβ1 antibody (1:100; Santa Cruz Biotechnology); monoclonal mouse anti-ICAM-1 (1:100; Santa Cruz). […] The surface area labeled by antibodies was evaluated by quantitative image analysis as previously described (Lazaro A. et al. Antiox Redox Signal. 2005; 7:1285-1293). In brief, the percentage of the stained area was calculated as the ratio of suitable binary thresholded image and the total field area. For each sample, the mean staining area was obtained by analysis of the entire sample.
(§5) In the treatment groups, the rats were treated with cilastatin 150 mg/kg ip immediately and at 24 h after induction of sepsis or the sham-operation. Cilastatin was substituted by vehicle (0.5 mL/100 g) in the non-treatment groups. […] All animals were then placed in the metabolic cages for 24-h urine collection.
(§6) Forty-eight (48) hours after the sepsis-induction/sham-operation, all rats were anesthetized with ketamine (10 mg/kg) and diazepam (4 mg/kg) and killed. Blood samples were collected by insertion of a cannula into the abdominal aorta, and serum was isolated by centrifugation in ACUETTE® Z Serum Sep Clot Activator tubes (Greiner bio-one), at 2000 rpm for 15 h at 4° C., and then stored at −80° C. until use. The kidneys were perfused with cold saline and quickly removed. Kidney samples were snap-frozen in liquid nitrogen and kept at −80° C. or fixed in 4% paraformaldehyde (24 h) and paraffin-embedded for the different studies.

[5] = test system: 4-HNE; details: septic rats
Procedure: as §1, §4, §5, §6

[6] = test system: TGFβ; details: septic animals; immunohistochemistry
Procedure: as §1, §4, §5, §6

[7] = test system: VCAM-1; details: septic rats; immunohistochemistry
Procedure: as §1, §4, §5, §6

[8] = test system: ICAM-1; details: septic rats; immunohistochemistry
Procedure: as §1, §4, §5, §6

[9] = test system: CLP-induced sepsis rats
Procedure: as §1

[10] = septic rats
Procedure: as §1, §5
as §6, with “Kidney samples were snap-frozen in liquid nitrogen and kept at −80° C. or fixed in 4% paraformaldehyde (24 h) and paraffin-embedded for the different studies.” left out

[11] = test system: CLP-induced sepsis rats; details: day 2 after CLP surgery
Procedure: as §1, §5
as §6, with “Kidney samples were snap-frozen in liquid nitrogen and kept at −80° C. or fixed in 4% paraformaldehyde (24 h) and paraffin-embedded for the different studies.” left out

[12] = test system: kidney tubular cell apoptosis; details: kidneys of septic rats
Procedure: as §1, §5
as §6, with “Kidney samples were snap-frozen in liquid nitrogen and kept at −80° C. or fixed in 4% paraformaldehyde (24 h) and paraffin-embedded for the different studies.” left out

[13] = test system: CLP-induced sepsis rats; remark: listed apart in the source
Procedure: as §1
Serum creatinine, blood urea nitrogen levels (BUN), proteins and other parameters were measured using the Dimension RxL autoanalyzer (Dade-Behring, Siemens, Eschborn, Germany). The glomerular filtration rate was calculated using the creatinine clearance rate.
The animals were randomly allocated into four groups (n=10 in each group): • i. sham-operated group, • ii. CLP group, • iii. sham-operated group+cilastatin, and • iv. CLP group+cilastatin.
as §5, §6

[14] = test system: cleaved caspase-8; details: septic rats; Western blot
Procedure: as §1, with “At the end of the operation, all rats were resuscitated with normal saline (50 ml/kg body weight) subcutaneously in a single dose and analgesic treatment with buprenorphine (buprex 0.3 mg/ml) 0.1 mg/kg every 12 hours immediately after surgery and until the day of killing.” left out
as §3

[15] = test system: FasL; details: septic rats; Western blot
Procedure: as §1, with “At the end of the operation, all rats were resuscitated with normal saline (50 ml/kg body weight) subcutaneously in a single dose and analgesic treatment with buprenorphine (buprex 0.3 mg/ml) 0.1 mg/kg every 12 hours immediately after surgery and until the day of killing.” left out
as §3

[16] = sepsis+cil group, 48 hours after induction of sepsis, cilastatin 150 mg/kg ip immediately and at 24 h, mean±s.e.m.

CC1(C)C[C@@H]1C(=O)N/C(=C\CCCCSC[C@H](N)C(=O)O)C(=O)O [cilastatin, (Z)-7-[(2R)-2-Amino-3-hydroxy-3-oxopropyl]sulfanyl-2-{[(1S)-2,2-dimethylcyclopropanecarbonyl]amino}hept-2-enoic acid]
Elevated caspase-3 levels [1]: significantly lowered
Cu/Zn SOD expression in renal cortex [2]: able to restore its expression
KIM-1 protein level [3]: partially restored
CD68 positive cells in renal samples [4]: fewer
Sepsis-enhanced 4-HNE staining in the kidneys [5]: completely prevented
TGFβ1 levels in renal tissue [6]: significantly decreased
Sepsis-induced increase of VCAM-1 expression [7]: significantly reduced
Sepsis-induced increase of ICAM-1 expression [8]: significantly reduced
Decrease in mortality ([9]; cilastatin vs CLP plus vehicle, 48 h after CLP): 33% and 30%
Mortality (%) ([9]; sepsis+cil group, monitored for 48 h after CLP, cilastatin 150 mg/kg immediately and at 24 h, 6 rats per group, sepsis vehicle group 83%): 50%
Antioxidant capacity in urine [10]: improved
Semi-quantitative renal injury score [11]: reduced the renal injury score
Number of TUNEL-positive cells [12]: significantly decreased
Protein excretion ([13]; CLP group with cilastatin vs CLP group, 48 h): significantly reduced
Proteinuria ([13]; sepsis+cil group (fourth value, group not labelled), 48 hours, cilastatin 150 mg/kg ip, mean±s.e.m.): 1889±347
Blood urea nitrogen [13, 16]: 75±7
Serum creatinine [13, 16]: 0.38±0.02
Glomerular filtration rate ([13]; sepsis+cil group, 48 hours, calculated using the creatinine clearance rate, cilastatin 150 mg/kg ip, mean±s.e.m.): 0.45±0.07
Sepsis-induced dysfunctions: serum BUN and creatinine increase, glomerular filtration rate decrease ([13]; septic animals, cilastatin 150 mg/kg ip, 48 h): totally prevented
Renal cortex cleaved caspase-8 [14]: attenuated
Renal cortex FasL [15]: attenuated
